These results are taken from patent publication US10442773B2, “Amorphous letermovir and solid pharmaceutical formulations thereof for oral administration” (AICURIS ANTI-INFECTIVE CURES GMBH, priority 2013, dated 2019).

As usually defined, the EC50 is the concentration at which the effect is half-maximal. In general, solubility refers to the concentration that dissolves in the medium under given conditions. What is called bioavailability is the share of a dose that reaches the circulation, judged against a reference dose that is usually intravenous.

≈ marks a conversion by molar mass, not a printed value. Like-named read-outs stand apart in the source and are kept apart here.

The nature of data set [1]: Laser diffraction particle size distribution analysis (Mastersizer 2000). Format: physicochemical. As to conditions: Mastersizer 2000, dry dispersion, average of four analyses. On the procedure:
Laser diffraction particle size distribution analysis was conducted on two batches of precipitated amorphous Letermovir of the invention and on a batch of amorphous Letermovir (referred to as BXR3GBL) produced according to Example 11 of WO 2006/133822 while using laser diffraction technique of the Mastersizer 2000 (Malvern Instruments). The results of the analysis are presented in FIG. 9(a-c) in the form of three particle size distribution charts and the numeric part of the results is shown below in Table 23: The particular PSD analysis method is characterized by the following parameter: Device: Mastersizer 2000 with dry dispersion Modus: Fraunhofer; weight-in quantity: 0.3-0.4 g Measurement time: 20 seconds Background time: 6 seconds Obscuration limits: 0.5 to 6% Sample tray: micro volume; small sieve with balls Feed rate: 45-55% Dispersive pressure: 2.5 bar Four independent analyses were performed and the results were averaged.

Data set [2] in a line: BET specific surface area analysis. As to conditions: for Specific Surface Area (SSA), m^2/g: further BET measurement accompanying the particle size analysis (Table 23). The format is physicochemical. On the procedure:
BET specific surface area analysis was conducted on various batches of precipitated amorphous Letermovir. The same was done on a batch of Letermovir (named BXR3GBL) produced according to Example 11 of WO 2006/133822. The results of the analysis are shown below in Table 22: The particular BET method is characterized by the following parameter: Principle: Nitrogen adsorption at 77 K; method according to Brunauer, Emmett and Teller Method: volumetric method (method II) according to USP <846> Instrument: Tristar 3000/VacPrep 061 (Micromeritics) Sample mass: approximately 1.5-2.5 g Sample preparation: degassing for 2 h at 40° C. under vacuum (final vacuum <2.7 Pa) Pressure range p/p0: 0.05-0.15 (3 data points).

Another data set has as its system HCMV isolates. As to the kind of experiment: Antiviral activity against HCMV isolates. Format: cell-based, human cytomegalovirus. The following applies: Human betaherpesvirus 5; HCMV isolates of the respective individual; SD 0.0001 to 0.001. The text has this: The term “pharmaceutical activity” of Letermovir denotes the antiviral activity against HCMV isolates of the respective individual, being in the range of EC50±SD of 0.0005 to 0.005±0.0001 to 0.001.

Data set [3] in a line: pH-solubility profile of amorphous Letermovir (BCS approach). The format is physicochemical. The following applies: standard buffer solutions, thermodynamic from solid. The procedure: The inventors conducted a solubility study of amorphous Letermovir to investigate its biopharmaceutical status by standardized measures. The inventors orientated on the guidelines of the established Biopharmaceutics Classification System (BCS). The solubility class boundary according to the BCS is based on the highest dose strength of the IR product. By using the BCS approach the equilibrium solubility of amorphous Letermovir under physiological pH conditions is determined. The pH-solubility profile of amorphous Letermovir was determined at 37±1° C. in aqueous media with a pH in the range of 1-7.5. A sufficient number of pH conditions were evaluated to accurately define the pH-solubility profile of amorphous Letermovir. The number of pH conditions for the solubility determination was based on the ionization characteristics of Letermovir. A minimum of three replicate determinations of solubility in each pH condition was conducted. The highest dose of Letermovir is exemplarily 240 mg. When dissolved in 250 ml this equates to a concentration of 0.96 mg/ml.

Data set [4] is described as follows: Ionization characteristics (isoelectric point, pKa). Format: physicochemical. The text has this:
The expressions “zwitterionic, zwitterionic properties, and zwitterion” in the context of the present invention for the API Letermovir means that a Letermovir molecule is a neutral molecule having a positive and a negative electrical charge at different locations within the same molecule. Accordingly, the API Letermovir has a charge, which changes with pH when measured in an electric field. […] The net charge is influenced by the pH value. Letermovir has a fixed value of isoelectric point (pI) being the pH value at which the number of cations is equal to that of anions. At this point (pI=5.55) the net electric charge of Letermovir is always zero. The solubility class boundary according to the BCS is based on the highest dose strength of the IR product. By using the BCS approach the equilibrium solubility of amorphous Letermovir under physiological pH conditions is determined. The pH-solubility profile of amorphous Letermovir was determined at 37±1° C. in aqueous media with a pH in the range of 1-7.5. A sufficient number of pH conditions were evaluated to accurately define the pH-solubility profile of amorphous Letermovir. The number of pH conditions for the solubility determination was based on the ionization characteristics of Letermovir. A minimum of three replicate determinations of solubility in each pH condition was conducted.

The nature of data set [5]: Absolute bioavailability, Cohort 1 of a clinical trial (oral vs intravenous). The following applies: human, plasma; single 30 mg oral dose (amorphous) vs 30 mg intravenous 30 min infusion; based on AUC0-last; 12 healthy female subjects. Format: in vivo. On the procedure:
Assessment of absolute bioavailability after oral administration of 30 mg Letermovir in the amorphous state versus a 30 minute intravenous administration of 30 mg Letermovir in 150 ml saline solution 0.9%. Cohort 1 of the trial was conducted in an open-label, randomized (to treatment sequence), single center cross-over design (2 periods) in 12 healthy female subjects. Subjects received a single intravenous dose of 30 mg Letermovir via a 30-minute infusion in one period (“reference”) and a single oral dose of 30 mg Letermovir in the amorphous state in the other period (“test”). In both periods subjects were in-house from Day −1 to Day 4 (72 h after dosing on Day 1). The washout period between the periods (i.e. the dosing) was at least one week. The 30 mg dose in Cohort 1 was evaluated (see FIGS. 7a and 7b). Plasma concentrations of Letermovir were determined using a lower limit of quantification (LLOQ) of 1.00 ng/mL. Pharmacokinetic parameters AUC0-∞, Cmax, F, AUC0-last, tmax, λZ, t1/2z, CL/F, CL, Vd/F, Vd, MRT, AUC0-∞/D, Cmax/D, AUC0-last/D for Cohort 1 were calculated in WinNonlin using the actual sampling times. Descriptive statistics were calculated for the plasma concentrations and for the derived pharmacokinetic parameters. Statistics included sample size (n), mean, standard deviation (SD), percentage of coefficient of variation (% CV), geometric mean, median, minimum, and maximum. […]

Data set [6] in a line: Long-term stability study of Letermovir precipitate tablets. The format is physicochemical. On the procedure: Long-term stability studies were conducted with testing of color, dissolution, degradation products and assay at regular intervals to confirm the stability of amorphous Letermovir precipitate tablets.
In addition, disintegration, water content and hardness/breaking load were conducted as informative tests.
Samples of one batch of each dose strength of Letermovir precipitate tablets, packaged in 45 ml HDPE bottles with child-resistant closures were stored at 25° C./60% relative humidity and at 40° C./75% relative humidity. Stability data after 36 months storage were reported.
Additional forced degradation studies were conducted. One batch per dose strength of Letermovir was stored at 60° C. for 3 months. In order to assess the hydrolytic stability, one batch of the 20 mg dose strength was stored with open storage at 40° C./75% relative humidity for 3 months.

Regarding `COc1cccc(N2CCN(C3=Nc4c(F)cccc4[C@H](CC(=O)O)N3c3cc(C(F)(F)F)ccc3OC)CC2)c1` [Batch 1300735], in data set [1], the “Particle Size Median Value d(0.5), μm” value amounted to 8.880 μm. Besides, the “Specific Surface Area (SSA), m^2/g” value in data set [2] is reported as 2.18 m^2/g.

With `COc1cccc(N2CCN(C3=Nc4c(F)cccc4[C@H](CC(=O)O)N3c3cc(C(F)(F)F)ccc3OC)CC2)c1` [Batch 1300750], in data set [1], the “Particle Size Median Value d(0.5), μm” value is recorded as 9.383 μm. Further, the “Specific Surface Area (SSA), m^2/g” value in data set [2] stood at 2.1 m^2/g.

As for `COc1cccc(N2CCN(C3=Nc4c(F)cccc4[C@H](CC(=O)O)N3c3cc(C(F)(F)F)ccc3OC)CC2)c1` [Batch BXR3GBL, reference compound], in data set [1], the “Particle Size Median Value d(0.5), μm” value was 21.607 μm. The “Specific Surface Area (SSA), m^2/g” value in data set [2] is listed as 1.55 m^2/g. Moreover, the “Specific Surface Area (SSA), m^2/g; BET value on average” value in data set [2] (nitrogen adsorption at 77 K) was 0.64 m^2/g.

`COc1cccc(N2CCN(C3=Nc4c(F)cccc4[C@H](CC(=O)O)N3c3cc(C(F)(F)F)ccc3OC)CC2)c1` [Letermovir, (S)-{8-Fluoro-2-[4-(3-methoxyphenyl)-1-piperazinyl]-3-[2-methoxy-5-(trifluoromethyl)phenyl]-3,4-dihydro-4-quinazolinyl}acetic acid] came in with an EC50 with HCMV isolates of 0.5 to 5 nM. Besides, the solubility at 24 h is at least 400 µg/mL in data set [3] (37 °C, aqueous buffer, pH range 1 to 7.5, summary of Table 3, read-out: solubility of Letermovir over the pH-range of 1 to 7.5); 800 µg/mL (≈ 1400 µM) in data set [3] (aqueous buffer, pH 2.9 (pKa1 − 1), 37°C±1°C, standard buffer, stirring 24 hours, read-out: Letermovir solubility); 400 µg/mL (≈ 699 µM) in data set [3] (aqueous buffer, pH 3.9 (pKa1), 37°C±1°C, standard buffer, stirring 24 hours, read-out: Letermovir solubility); 400 µg/mL in data set [3] (aqueous buffer, pH 4.9 (pKa1 + 1), 37°C±1°C, standard buffer, stirring 24 hours, read-out: Letermovir solubility); above 1000 µg/mL in data set [3] (aqueous buffer, pH 7.5, 37°C±1°C, standard buffer, stirring 24 hours, read-out: Letermovir solubility); above 900 µg/mL in data set [3] (simulated gastric fluid, pH 1, 37°C±1°C, standard buffer, stirring 24 hours, read-out: Letermovir solubility). In data set [4], the pKa1 is 3.9 (pKa1). Also, the “isoelectric point (pI)” value in data set [4] (pH at which net electric charge is zero) is 5.55. The compound further came in with a bioavailability in data set [5] of 76%. Also, the “stability under long-term and accelerated storage conditions” value in data set [6] (25°C/60% relative humidity and 40°C/75% relative humidity, 36 months) is given as “stable”. This compound also displayed a shelf-life assigned in data set [6] (real time data at 25°C/60% RH) of 36 months.
